Entries after “also recorded” stand apart in the source; their conditions may differ.
What was measured:
HIV-1 [1] = conditions: LC5-RIC cells; for inhibition of the late phase of HIV-1 replication: step 2 (supernatant transfer, 72 h), FIG. 6, FIG. 7; for inhibition of HIV-1 replication: 48 h, steps 1 and 2, FIG. 5
Experimental: (§2) LC5-RIC cells were seeded into 96-well plates (μCLEAR-Plate Black; Greiner Bio-One, Kremsmuenster, Germany), using only the 60 inner wells to avoid adverse effects caused by variations in the culture conditions in the outer wells. Cells were seeded at a density of 10^4 per well at 24 h prior to infection. Compounds were tested either at single concentrations or in serial dilutions, with each concentration assayed in triplicate. Compound solution (100 μl) followed by 20 μl of HIV inoculum (10^8 RNA copies/ml inoculum for KE37.1-derived HIV-1IIIB or 28.8 ng of p24 for HIV-1LAI derived from HEK 293T cells) was added to each well. To assay maximum infection (i.e., 100%), HIV inoculum was added to LC5-RIC cells incubated with compound-free medium. Controls for background expression consisted of LC5-RIC cells cultured in conditioned medium from KE37.1 (i.e., uninfected) cells. Plates were incubated for 48 h after virus addition, after which cultures were assayed for cellular reporter expression and for titers of infectious virus in supernatant fluids. Reporter expression was determined by measuring the total fluorescent signal intensity of each culture with a fluorescence microplate reader (Fluoroskan Ascent; ThermoFisher, Schwerte, Germany) at an excitation filter wavelength of 544 nm and an emission filter wavelength of 590 nm or with a Tecan infinite M200 (Tecan, Crailsheim, Germany) at the monochromator wavelengths 552 nm for excitation and 596 for emission. To quantify infectious virus titers, supernatant fluids (30 μl of HIV-1IIIB or 20 μl for HIV-1LAI) from cultures in the first plate were transferred to a second plate with uninfected LC5-RIC cells in exact replicate, and total fluorescent signal intensities of cultures in the second plate were measured 72 h after transfer.
(§3) Curve fits and EC50 calculations were done with Prism, version 4 (GraphPad Software, La Jolla, Calif.), using the equation for sigmoidal dose response with variable slope with the following set constraint parameters: fixed top of 100 and fixed bottom of 0. As internal acceptance criteria, R^2 values had to be ≥0.9.
(§4) To evaluate the inhibitory effects of the pyrone derivatives described herein, the EASY-HIT assay was used as disclosed in Kremp et al., supra. Briefly, a pyrone compound (or another test compound) was added to LC5-RIC cultures (or other uninfected cells, such as PBMCs) in microtiter plates, HIV preparations were added within 30 min of beginning treatment, and test cultures were incubated for 48 h after virus addition. Reference cultures were either exposed to the virus without test compound (maximum signal) or not exposed to the virus (minimum signal). Effects of test compounds on HIV infection of LC5-RIC cultures were determined in two steps. The first step quantified reporter expression by assaying fluorescent signal intensities of cells in test cultures. The second step quantified the infectious virus produced in test cultures by transferring aliquots of supernatants of test cultures to uninfected LC5-RIC cells (or other uninfected cells, such as PBMCs), followed by measurement of fluorescent signal intensities at 72 h after transfer. Cells evaluated for reporter expression were subjected to an MTT assay to detect deleterious effects of test compounds on cell viability under test conditions.
(§5) Briefly, the test compound) was added to LC5-RIC cultures in microtiter plates. HIV-1 virus preparations were added within 30 min of beginning treatment with the text compound and test cultures were incubated for 48 h after virus addition. Reference cultures were either exposed to the virus without test compound (maximum signal) or not exposed to the virus (minimum signal).

HIV-1 [2] = experiment: microbe, parasite or virus in culture; conditions: Human immunodeficiency virus 1, 48 h, read-out: EC50 with respect to HIV replication
Experimental: as §2, §3, §4, §5

LC5-RIC cells = experiment: MTT cell viability assay of LC5-RIC test cultures; format: cell-based; conditions: concentration range tested 0 to 120 μM; FIG. 1C
Excerpt: Effects of compounds on cell viability wasy measured by MTT assay, Cell Titre Blue Assay and Cell Tox Green Assay. The MTT assay and the Cell Titre Blue Assay evaluate metabolic activity of cells, The Cell Tox Green assay measures cell death (i.e. loss of cell membrane integrity). The MTT assay measures the reduction of the yellow MTT to purple formazan by mitochondrial enzymes (Mosmann, T., J. Immunol. Methods 65 (1983), 55-63) Immediately following measurement of reporter expression, cultures were incubated with 100 μl of MTT solution (0.5 mg of MTT; Sigma, Taufkirchen, Germany) in 100 μl of culture medium for 2 h under standard culture conditions. MTT solution was carefully removed, and cells were lysed by addition of 100 μl of lysis solution (10% [wt/vol] SDS and 0.6% [vol/vol] acetic acid in dimethyl sulfoxide [DMSO]). The released MTT formazan crystals were dissolved by gentle agitation, and MTT formazan concentrations were determined by an ELISA plate reader (SmartSpec Plus; Bio-Rad, Muenchen, Germany) or Tecan Infinite M200 at a test wavelength of 570 nm and a reference wavelength of 630 nm. Values for treated HIV-infected cultures were related to those of untreated, HIV-infected cultures in the same plate. […]

[3] = system: HIV-1 expression in HNSCLatGFP1.1 cells; experiment: Induced expression of latent HIV-1-gfp reporter virus in HNSCLatGFP1.1 cells (GFP, FACS); format: cell-based, human; conditions: induction with TNF; 0.5, 5, 50 nM compound; FIG. 3A
Experimental: A) Induction of expression of HIV-1 in HNSCLatGFP1.1 cells using TNF: 1: untreated (negative control); 2: TNF (positive control); 3: 0.5 nM Compound 1; 4: 5 nM Compound 1; 5: 50 nM Compound 1; 6: 0.5 nM Compound 1+TNF; 7: 5 nM Compound 1+TNF; 8: 50 nM Compound 1+TNF. B) Induction of expression of HIV-1 in HNSCLatGFP1.1 cells using TNF+SAHA: 1: mock; 2: TNF+SAHA; 3: 50 nM Compound 1; 4: TNF+SAHA+50 nM Compound 1. C) Induction of expression of HIV-1 in HNSCLatGFP1.1 cells using SAHA: 1: untreated (negative control); 2: SAHA (positive control); 3: 0.5 nM Compound 1; 4: 5 nM Compound 1; 5: 50 nM Compound 1; 6: 0.5 nM Compound 1+SAHA; 7: 5 nM Compound 1+SAHA; 8: 50 nM Compound 1+SAHA.
To further characterize the inhibitory effects of Compound 1, a further cell line (HNSCLatGFP1.1) was established into the genome of which the genome of a HIV-1-gfp reporter virus has been stably integrated.
Reference cultures were either untreated (minimum signal; lane 1 of FIG. 3A) or exposed to TNF (maximum signal; lane 2 of FIG. 3A). HNSCLatGFP1.1 cells were exposed to different concentrations of Compound 1 either alone (lanes 3 to 5 of FIG. 3A) or together with TNF (lanes 6 to 8 of FIG. 3A).

HBV = HBV replication in HepG2.2.15 cells (HBeAg, released viral particles, intracellular HBV DNA); format: cell-based; conditions: three days treatment, 1 μM to 1 nM
Experimental: Antiviral effect of Compound 1 on HBV replication. A) After a three days treatment of HepG2.2.15 cells with Compound 1 in a concentration range from 1 μM to 1 nM, the cell viability was unchanged compared to untreated control cells.
(§1) The human hepatoma cell line HepG2.2.15, stably expressing HBV particles, was seeded in a 48 well format at a density of 5×10^4 the day before starting the treatment. Next day the cells were treated with 1 μM, 100 nM, 10 nM and 1 nM of Compound 1 with 3 independent biological replicates each. The cells were cultured in differentiation medium containing 1.8% DMSO, to slow down cell growth and enhance viral replication. Three days after treatment, cell viability (FIG. 4A) was determined by cell titer blue assay, cell supernatants were analyzed for HBeAg and newly released viral particles (FIGS. 4B and C) and finally cells were harvested to analyze for intracellular HBV DNA (FIG. 4D).

HepG2.2.15 cells = experiment: Cell viability of HepG2.2.15 cells by cell titer blue assay; format: cell-based, human; conditions: three days treatment, 1 μM to 1 nM, compared to untreated control cells; FIG. 4A
Experimental: as §1

HIV = experiment: Time-of-addition (TOA) assay in LC5-RIC cells; format: cell-based, HIV-1; conditions: FIG. 2
Experimental: TOA assays were performed in 96-well plates using a standard assay setup with some modifications. HIV-1IIIB virus preparations were added to LC5-RIC cultures at time point 0. Anti-HIV compounds were added to the cultures at different time points after addition of virus preparations. Inhibitor concentrations were ≥2× EC50 in each well. At least 15 different time points were evaluated for each compound in at least three wells per time point. Cultures were incubated with virus for 48 h and subsequently analyzed for cellular reporter gene expression and/or infectious virus titers in culture supernatants.
To further characterize the inhibitory effects of Compound 1, HIV preparations were added to LC5-RIC cells at the time point 0. Compound 1 was added to the cultures at different time points after virus addition (i.e., p.i.). Plates were incubated for a total period of 48 h after virus addition, and cultures were assayed for HIV reporter expression (step 1) or for amounts of infectious virus in culture supernatants (step 2). Fluorescent signal intensities of treated cultures were related to those of cultures infected without inhibitors (set at 100% infection).

Structure (SMILES): COc1oc([C@H]2C/C(=C/C(C)=C/c3ccc(C(F)(F)F)cc3)CO2)c(C)c(=O)c1C [Compound 22]
- inhibition of the late phase of HIV-1 replication (HIV-1 [1]): highest activities

Structure (SMILES): COc1oc([C@H]2C/C(=C/C(C)=C/c3cccc(Cl)c3)CO2)c(C)c(=O)c1C [Compound 19]
- inhibition of HIV-1 replication (HIV-1 [1]): inhibit HIV-1 replication

Structure (SMILES): COc1ccc(/C=C(C)/C=C2\CO[C@@H](c3oc(OC)c(C)c(=O)c3C)C2)cc1OC [Compound 23]
- inhibition of the late phase of HIV-1 replication (HIV-1 [1]): lowest activity

Structure (SMILES): COc1oc([C@H]2C/C(=C/C(C)=C/c3ccc(Cl)cc3)CO2)c(C)c(=O)c1C [Compound 4]
- inhibition of HIV-1 replication (HIV-1 [1]): inhibit HIV-1 replication

Structure (SMILES): COc1oc([C@H]2C/C(=C/C(C)=C/c3ccc([N+](=O)[O-])cc3)CO2)c(C)c(=O)c1C [Compound 1]
- EC50 (HIV-1 [2]): 0.6 nM
- toxic effect (MTT cell viability) (LC5-RIC cells): did not exhibit any toxic effect
- inhibition of virus production in HNSCLatGFP1.1 cells [3]: able to inhibit virus production in HNSCLatGFP1.1 cells in a dose dependent manner
- IC50 (HBV; Hepatitis B virus, 72 h, n=3, read-out: IC50 of viral replication markers (HBeAg, released viral particles, intracellular HBV DNA)): 2 to 20 nM
- viral replication markers (HBeAg, newly released viral particles, intracellular HBV DNA) (HBV; FIG. 4B-D): strongly reduced in a dose dependent fashion
- cell viability of HepG2.2.15 cells (HepG2.2.15 cells): unchanged; also recorded: without affecting cell viability
- time between infection and addition of compound at which HIV replication was still blocked (HIV; LC5-RIC cells, 48 h total incubation): 30 h
- stage of HIV replication inhibited (time-of-addition) (HIV; compound added at different time points after virus addition, 48 h total): inhibited the HIV replication at a very early stage

Structure (SMILES): COc1oc([C@H]2C/C(=C/C(C)=C/c3ccc(F)cc3F)CO2)c(C)c(=O)c1C [Compound 21]
- inhibition of the late phase of HIV-1 replication (HIV-1 [1]): highest activities
